Measured values from US7071166B2, “Skin wound healing promoters” (Santen Pharmacetical Co., Ltd., priority 2000, dated 2006).
Where a SMILES comes first, the peptide text is derived from it.

Experiments:
[1] = tested on: ear tissue pieces (epidermal cell layer); experiment: Action on epidermal extension (cultured rat ear tissue pieces); assay type: cell-based, rats (Spraque-Dawley); settings: for Extension length of epidermis: TCM 199 medium, cultured 24 hours, substance P or FGLM 20 μM, IGF-I 10 ng/ml, average of 12 samples; for Epidermal extension compared with control (in words): each drug used solely
Protocol: Excessive pentobarbital was administered to rats (Spraque-Dawley), and then ear tissue pieces of about 2×4 mm were prepared. Into a 60 mm Petri dish was put 18 ml of each TCM 199 culture medium containing each of test drugs in Table 1 [substance P, FGLM (SEQ ID NO: 2), IGF-I, substance P+IGF-I and FGLM (SEQ ID NO: 2)+IGF-I], and […] were added to each Petri dish (12 samples: three sections per group). The tissue pieces were cultured in a CO2 incubator (37° C.·5% CO2) for 24 hours, the tissue pieces were fixed with ethanol-acetic acid (volume ratio 95:5) to prepare three tissue sections per tissue piece according to the conventional method. The tissue sections were stained with hematoxylin-eosin, and then length of a epidermal cell layer having extended cut surfaces was measured. The tissue pieces were cultured under the same condition as mentioned above using a culture medium containing no test drug to prepare controls. The values in the table are the average of 12 samples.

[2] = tested on: full-thickness wounds on back skin of non-diabetes rats (non DM Rat); experiment: Action on skin wound healing, non-diabetes rats; assay type: in vivo, rats (Wistar); settings: ointment once a day, substance P 2.5 mg/ml, IGF-I 1 μg/ml, average of five
Protocol: (§1) Streptozotocin (70 mg/kg BW) dissolved in a citric acid buffer was injected intravenously into tails of rats (Wistar) under diethyl ether inhalation anesthesia to prepare diabetes rats (DM Rat) (five rats per group). An equal amount of the citric acid buffer alone was injected intravenously into rats (Wistar) to prepare non-diabetes rats (non DM Rat) (five rats per group). Four weeks after the intravenous injection, the back of all the rats was shaved with hair clippers under diethyl ether inhalation anesthesia, and hair was removed with cream for depilation. After 24 hours, five full-thickness (i.e. epidermis and dermis) wounds were made on back skin in equal intervals with a trepan for skin biopsy having a diameter of 5 mm. Confirming hemostasis, each ointment in Tables 2 and 3 was applied on the wound once a day. Just before applying the ointment once a day, the back wounds were photographed, and their areas were measured. […] The values in these tables are the average of five samples.

[3] = tested on: full-thickness wounds on back skin of diabetes rats (DM Rat); experiment: Action on skin wound healing, streptozotocin diabetes rats; assay type: in vivo, rats (Wistar); settings: ointment once a day, substance P 2.5 mg/ml, IGF-I 1 μg/ml, average of five
Protocol: as §1

Compound	Extension length of epidermis [1] [μm]	Epidermal extension compared with control (in words) [1]	Skin wound area of non-diabetes rat ([2]; 1st day) [%]	Skin wound area of non-diabetes rat ([2]; After 2 days) [%]	Skin wound area of non-diabetes rat ([2]; After 4 days) [%]	Skin wound area of non-diabetes rat ([2]; After 6 days) [%]	Skin wound area of diabetes rat ([3]; 1st day) [%]	Skin wound area of diabetes rat ([3]; After 1 day) [%]	Skin wound area of diabetes rat ([3]; After 4 days) [%]	Skin wound area of diabetes rat ([3]; After 7 days) [%]	Skin wound area of diabetes rat ([3]; After 10 days) [%]
IGF-I: insulin-like growth factor-I	50.68	almost as long as that in the case where the control is used	100	81	66	43	100	89	64	52	27
CSCC[C@H](NC(=O)[C@H](CC(C)C)NC(=O)CNC(=O)[C@H](Cc1ccccc1)NC(=O)[C@H](Cc1ccccc1)NC(=O)[C@H](CCC(N)=O)NC(=O)[C@H](CCC(N)=O)NC(=O)[C@@H]1CCCN1C(=O)[C@H](CCCCN)NC(=O)[C@@H]1CCCN1C(=O)[C@@H](N)CCCNC(=N)N)C(N)=O [Substance P, Arg-Pro-Lys-Pro-Gln-Gln-Phe-Phe-Gly-Leu-Met-NH2]	72.57	almost as long as that in the case where the control is used	100	88	74	59	100	90	77	68	44
CSCC[C@H](NC(=O)[C@H](CC(C)C)NC(=O)CNC(=O)[C@@H](N)Cc1ccccc1)C(N)=O [FGLM, Phe-Gly-Leu-Met-NH2] (H-FGLM-NH2)	55.37	almost as long as that in the case where the control is used									
